For one test, the system named is NF-κB. The following applies: high concentration of LPC (50 μM); cited from earlier work.
Another test concerns BALB/c mice. Kind of test: Inflammation of the plantar foot pad (thickening of the foot). The note with it: after 24 h. Type of test: in vivo, mouse. How it is done: LPC is an inflammatory product—In this example, a solution of 100 to 500 nmol of LPC dissolved in 50 μl of PBS is injected into the plantar foot pad of BALB/c mice (Charles River Laboratories) on day 0. The plantar foot pads are measured using a micrometer before and after injection, up to the 10th day, and compared to the plantar foot pads of “control” mice, obtained by injection of PBS (50 μl). The intensity of the inflammation is reflected by the thickening of the foot. The maximum thickening is observed on the 1st day, 24 h after the injection.
INTRALIPID® blocks the inflammation and the immune response induced by LPC, in vivo. In this example, 3 batches of BALB/c mice are immunized against the hen egg lysozyme (HEL) antigen by injection of 50 μl of solution into the plantar foot pad. The “HEL” control batch receives 50 μg of HEL, the “HEL+Intralipid” batch receives a mixture of INTRALIPID® (45 μl) and of 50 μg of HEL (5 μl of a solution at 10 mg/ml). The “HEL+LPC” batch receives 50 μg of HEL with 350 nmol of LPC dissolved in PBS. The “HEL+LPC+Intralipid” batch receives 50 μg of HEL mixed with 350 nmol of LPC dissolved in 45 μl of INTRALIPID®. After 24 hours, the thickness of the foot pads is measured using a micrometer, and compared with the measurement taken before injection. The difference in thickness is proportional to the intensity of the inflammation.

Another test has as its system PAF receptor. Briefly: CD86 expression in presence of PAF or of the PAF antagonist BN52021. It counts as cell-based, human. How it is done: The phenotype of the “control” and “LPC” cells is analyzed by flow cytometry on a FACSCalibur (Becton Dickinson, Francklin Lakes, N.J., USA) using FITC (fluorosceine isothiocyanate)-conjugated anti-CD14, anti-HLA-DR and anti-CD80 and PE (phycoerythrin)-conjugated anti-CD1a, anti-CD83, anti-CD86 and anti-CD40 (Beckman Coulter). According to the state of the art, monocytes preferentially have a CD14+ CD1a− phenotype, immature dendritic cells preferentially have a CD14− CD1a+CD86− phenotype, and mature dendritic cells preferentially have a CD14− CD1a intermediate—CD86+ phenotype.
Thus, a solution of PAF (Sigma, 5 μM) was added to the culture medium on the 5th day of monocyte differentiation. The expression of CD86 by the “control” cells and by the “LPC” cells, obtained in the presence or in the absence of PAF, was analyzed according to the protocol described in example 2, and the results are given in table 9.
Thus, a solution of the PAF antagonist BN52021 (Biomol, Plymouth Meeting, USA, 100 μM) was added to the culture medium on the 5th day of monocyte differentiation. The expression of CD86 by the “control” and “LPC” cells, obtained in the presence or in the absence of BN52021, was analyzed according to the protocol described in example 2, and the results are given in table 10.

Turning to L-α-lysophosphatidylcholine [LPC], the “Activity of the transcription factor NF-κB” value in the test with NF-κB is given as “inhibits”. Also, the “Thickening of the foot” value in the test with BALB/c mice (LPC 100 nmol in 50 μl PBS into plantar foot pad) is 0.35 mm; with BALB/c mice (LPC 200 nmol) it was 0.55 mm; with BALB/c mice (LPC 300 nmol) it was 0.725 mm; with BALB/c mice (LPC 400 nmol), 1.125 mm; in the test on BALB/c mice (LPC 500 nmol), 1.075 mm. Besides, the “Expression of CD86” value in the test on PAF receptor (LPC cells = 100%, BN52021 100 μM added on 5th day) was found to be 100%. For the same substance, in the test on PAF receptor (PAF 5 μM and/or LPC added on 5th day), the “Expression of the CD86 marker (mean fluorescence intensity)” value amounted to 287.11. Also, the “Increase in the expression of CD86” value in the test on PAF receptor (versus control cells, PAF 5 μM and/or LPC) turned out to be 470%.

Values taken from patent publication US7368287B2, “Use of L-α-lysophosphatidylcholine to obtain the differentiation of monocytes into mature dendritic cells in vitro” (Biomerieux, priority 2002, dated 2008).
